Assay results taken from patent US20230159532A1, “PARATHYROID HORMONE (PTH) RECEPTOR ANTAGONISTS AND USES THEREOF” (Crinetics Pharmaceuticals, Inc., priority 2021, published 2023).

biological target: T1, human PTHR1 receptor (Homo sapiens, UniProt Q03431); assay: Competitive antagonist binding assay for hPTH-R1 (radioactive competition binding, SPA beads); settings: human PTHR1 membranes, [125I]-[Nle8,18,Tyr34]-PTH(1-34) 0.2 nM, 90 minutes at room temperature; read-out: hPTHR1 Ki
T1 construct: purchased Eurofins HTS030M
T1 sequence (Q03431 27-593): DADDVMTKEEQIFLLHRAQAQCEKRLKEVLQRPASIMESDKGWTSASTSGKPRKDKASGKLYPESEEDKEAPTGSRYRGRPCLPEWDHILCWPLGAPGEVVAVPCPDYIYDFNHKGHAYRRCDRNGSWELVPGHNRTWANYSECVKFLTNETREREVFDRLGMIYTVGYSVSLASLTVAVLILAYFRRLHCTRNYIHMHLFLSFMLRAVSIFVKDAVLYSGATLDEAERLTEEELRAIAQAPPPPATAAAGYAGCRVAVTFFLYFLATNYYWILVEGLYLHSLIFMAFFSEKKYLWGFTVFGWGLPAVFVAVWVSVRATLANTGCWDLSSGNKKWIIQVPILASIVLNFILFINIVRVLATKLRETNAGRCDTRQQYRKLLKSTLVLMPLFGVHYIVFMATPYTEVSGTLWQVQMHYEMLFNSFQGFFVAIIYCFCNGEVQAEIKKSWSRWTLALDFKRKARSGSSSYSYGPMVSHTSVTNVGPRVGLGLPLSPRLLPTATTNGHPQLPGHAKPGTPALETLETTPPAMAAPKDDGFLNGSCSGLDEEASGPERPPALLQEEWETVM
Procedure, shortened: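 Displacement of 0.2 nM radioiodinated [Nle8,18,Tyr34]-PTH(1-34) from membrane-bound human PTHR1 measured by scintillation proximity after 90 min at room temperature. Compounds typically 0-10,000 nM final, pH 7.4 HEPES/Mg/Ca buffer with BSA and detergent. Ki calculated from competition data.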

| Ki [nM] | Structure (SMILES) |
| --- | --- |
| < 100 | CCN1C(=O)N(c2c(F)cc(NCCNCCNC(=O)NC)cc2F)c2cc(C#N)ccc2-c2cc(Cl)cnc21 [1-166, 1-[2-({2-[(4-{4-chloro-13-cyano-8-ethyl-9-oxo-6,8,10-triazatricyclo[9.4.0.0^2,7]pentadeca-1(11),2(7),3,5,12,14-hexaen-10-yl}-3,5-difluorophenyl)amino]ethyl}amino)ethyl]-3-methylurea] |
| < 100 | Cc1cc(Cl)cc2c1-c1cc(F)cnc1N(C)C(=O)N2c1c(F)cc(NCCNCCCC(=O)O)cc1F [1-77, 4-({2-[(4-{13-chloro-4-fluoro-8,15-dimethyl-9-oxo-6,8,10-triazatricyclo[9.4.0.0^2,7]pentadeca-1(11),2(7),3,5,12,14-hexaen-10-yl}-3,5-difluorophenyl)amino]ethyl}amino)butanoic acid] |
| < 100 | CCN1C(=O)N(c2ccc(NCCNC3CCOCC3)cc2F)c2cc(Cl)ccc2-c2cc(Cl)cnc21 [2-12, 4,13-dichloro-8-ethyl-10-[2-fluoro-4-({2-[(oxan-4-yl)amino]ethyl}amino)phenyl]-6,8,10-triazatricyclo[9.4.0.0^2,7]pentadeca-1(11),2(7),3,5,12,14-hexaen-9-one] |
| < 100 | CCN1C(=O)N(c2c(F)cc(NCCNCCO)cc2F)c2cc(C#N)ccc2-c2cc(C)cnc21 [1-208, 10-[2,6-difluoro-4-({2-[(2-hydroxyethyl)amino]ethyl}amino)phenyl]-8-ethyl-4-methyl-9-oxo-6,8,10-triazatricyclo[9.4.0.0^2,7]pentadeca-1(11),2(7),3,5,12,14-hexaene-13-carbonitrile] |
| < 100 | O=C1N(CC2CC2)c2ncc(Cl)cc2-c2ccc(Cl)cc2N1c1c(F)cc(NCCNCCO)cc1F [1-52, 4,13-dichloro-8-(cyclopropylmethyl)-10-[2,6-difluoro-4-({2-[(2-hydroxyethyl)amino]ethyl}amino)phenyl]-6,8,10-triazatricyclo[9.4.0.0^2,7]pentadeca-1(11),2(7),3,5,12,14-hexaen-9-one] |
| < 100 | CCN1C(=O)N(c2c(F)cc(NCCNC3CCOCC3)cc2F)c2cc(Cl)ccc2-c2cc(C#N)ncc21 [3-24, 13-chloro-10-[2,6-difluoro-4-({2-[(oxan-4-yl)amino]ethyl}amino)phenyl]-8-ethyl-9-oxo-5,8,10-triazatricyclo[9.4.0.0^2,7]pentadeca-1(11),2(7),3,5,12,14-hexaene-4-carbonitrile] |
| < 100 | CCN1C(=O)N(c2c(F)cc(NCCNC[C@@H](C)O)cc2F)c2cc(C#N)ccc2-c2cc(Cl)cnc21 [1-186, 4-chloro-10-{2,6-difluoro-4-[(2-{[(2R)-2-hydroxypropyl]amino}ethyl)amino]phenyl}-8-ethyl-9-oxo-6,8,10-triazatricyclo[9.4.0.0^2,7]pentadeca-1(11),2(7),3,5,12,14-hexaene-13-carbonitrile] |
| < 100 | CNCCNc1cc(F)c(N2C(=O)N(C(C)C)c3ncc(Cl)cc3-c3ccc(Cl)cc32)c(F)c1 [1-39, 4,13-dichloro-10-(2,6-difluoro-4-{[2-(methylamino)ethyl]amino}phenyl)-8-(propan-2-yl)-6,8,10-triazatricyclo[9.4.0.0^2,7]pentadeca-1(11),2(7),3,5,12,14-hexaen-9-one] |
| < 100 | CCN1C(=O)N(c2c(F)cc(NCCNCCO)cc2F)c2cc(C#N)ccc2-c2cc(Cl)cnc21 [1-55, 4-chloro-10-[2,6-difluoro-4-({2-[(2-hydroxyethyl)amino]ethyl}amino)phenyl]-8-ethyl-9-oxo-6,8,10-triazatricyclo[9.4.0.0^2,7]pentadeca-1(11),2(7),3,5,12,14-hexaene-13-carbonitrile] |
| < 100 | CCN1C(=O)N(c2c(F)cc(NCCNC[C@@H](O)c3ccccc3)cc2F)c2cc(C#N)ccc2-c2cc(Cl)cnc21 [1-239, 4-chloro-10-{2,6-difluoro-4-[(2-{[(2S)-2-hydroxy-2-phenylethyl]amino}ethyl)amino]phenyl}-8-ethyl-9-oxo-6,8,10-triazatricyclo[9.4.0.0^2,7]pentadeca-1(11),2(7),3,5,12,14-hexaene-13-carbonitrile] |
